This note sets out measurements from patent publication US20190175560A1, “MEBENDAZOLE CANCER THERAPIES AND METHODS OF USE” (Shepherd Therapeutics, Inc., priority 2017, published 2019).

The test system of data set [1] is MUG-Chor1 chordoma cell line. Description: MBZ cell viability dose response (CellTiter Glo). Type of data set: cell-based. The following applies: 72 hours, up to the highest concentration, 50 μM. The protocol:
(§1) The effect of mebendazole administration on cell lines derived from exemplary cancers was tested. One approach to determining the effectiveness of mebendazole in the treatment of cancer comprises in vitro testing. In this approach, cancer cell lines representative of the cancers of the disclosure are cultured in vitro according to standard techniques (see, for example, Human Cell Culture Protocols, Third Edition, […] R. D. Hughes, Editors, Humana Press, 2012), and increasing concentrations of mebendazole are administered to determine the IC50 value. As used herein, the term “IC50 value” refers to the concentration of a compound (for example mebendazole) wherein the response to that compound (such as inhibited cellular viability) is reduced by half. The IC50 is thus a measure of the effectiveness of a compound in inhibiting a biological process. […] Based on this biology, several rare cancer tumor cell lines including neuroblastoma, rhabdomyosarcoma and Ewing sarcoma were analyzed for sensitivity to MBZ treatment in vitro. […] In all cases, including those described below, the viable cells were determined using the CellTiter Glo® kit and an IC50 curve was generated using the PRISM software. […] A dose response curve was generated using the PRISM software, with the intent of determining an IC50 for the cell lines following treatment of MBZ.

The next data set has as its system U-CH2 chordoma cell line. Description: MBZ cell viability dose response (CellTiter Glo). In kind it is cell-based. The following applies: 72 hours, up to the highest concentration, 50 μM. The protocol: as §1
Background: ATP-based viability assays read luminescence as a measure of living cells.

A short description of data set [2]: Tolerability of daily oral MBZ dosing in ACC PDX mice. In kind it is in vivo. The following applies: athymic nude mice with ACC PDX tumors; 50 or 200 mg/kg daily. The protocol: (§2) Despite a deepening understanding of the molecular events that lead to sustained tumor growth, there are currently no approved therapies for ACC. Identification of therapies for ACC has been hampered by the lack of ACC cell lines and transgenic mouse models. To circumvent these issues, the activity of MBZ was tested in several ACC patient-derived xenograft (PDX) models. Athymic nude mice were implanted subcutaneously with PDX tumors and treatment was initiated when tumors reached a size of 125-300 mm^3. Mice were randomized into three treatment groups to receive daily treatment with vehicle or MBZ at either 50 or 200 mg/kg for the duration of the study. Tumor size was measured twice weekly.

In data set [3] the test system is SNU16 gastric carcinoma cells. Description: Synergy of MBZ or HA-PLGA-MBZ with chemotherapeutic agents (Chou-Talalay CI, Cell Titer Glo). The settings on record: SNU16 + 5-FU. In kind it is cell-based.
Protocol: For in vitro experiments, cells were plated in triplicate and treated with a range of concentrations of MBZ and relevant chemotherapeutic agents in a complete Latin square.
Cells were plated in triplicate and treated with a range of 5 concentrations of MBZ in combination with 5 concentrations of chemotherapeutic agents in a complete Latin square. Following a 72 hour incubation, cell viability was determined using Cell Titer Glo.
In table 22 below, cells were plated in triplicate and treated with a range of 5 concentrations of MBZ or HA-PLGA-MBZ nanoparticles containing a molar equivalent of MBZ, and 5 concentrations of relevant chemotherapeutic agents in a complete Latin square. Combination indexes (CI) were determined based on the method described by Chou-Talalay with a CI value less than 0.9 indicating synergy. […] Numbers in parentheses represent the range of synergistic CI values for each cell line and drug combination.
For the next data set, the system named is ACCX6 PDX tumors. The experiment in a line: ACC patient-derived xenograft (PDX) model, daily oral MBZ. The following applies: for median survival: vehicle 42 days. Type of data set: in vivo, mice. The protocol: (§3) The effectiveness of mebendazole can be assayed in vivo using a patient derived xenograft mouse model. In patient derived xenograft mice, cancerous cells isolated from a cancer patient are implanted into an immunodeficient mouse, and allowed to form tumors. The mice are then administered mebendazole, and the effect on tumor size and mouse viability is assayed. As xenograft cancers can be implanted from a variety of patient sources, the effectiveness of mebendazole treatment on multiple cancers can be assayed in this manner. Human cancer cell lines such as those tested in vitro can similarly be used in mouse xenograft tumor models.
as §2
(In general: In xenograft studies the graft and the host belong to different species.)

A further data set deals with ACCX9 PDX tumors. Described as above. Type of data set: in vivo, mice. The following applies: for median survival: vehicle 29.5 days. The protocol:
as §3, §2

In a further data set the test system is ACCX5M1 PDX tumors. Described as above. Type of data set: in vivo, mice. The following applies: 50 or 200 mg/kg daily oral. The protocol:
as §3, §2

For data set [4], the system named is NCI-H295R adrenal cortical carcinoma cell line. Description: MBZ cell viability IC50 (CellTiter Glo). In kind it is cell-based. The settings on record: Homo sapiens, 72 hours. The protocol:
(§4) The effect of mebendazole administration on cell lines derived from exemplary cancers was tested. One approach to determining the effectiveness of mebendazole in the treatment of cancer comprises in vitro testing. In this approach, cancer cell lines representative of the cancers of the disclosure are cultured in vitro according to standard techniques (see, for example, Human Cell Culture Protocols, Third Edition, […] R. D. Hughes, Editors, Humana Press, 2012), and increasing concentrations of mebendazole are administered to determine the IC50 value. As used herein, the term “IC50 value” refers to the concentration of a compound (for example mebendazole) wherein the response to that compound (such as inhibited cellular viability) is reduced by half. The IC50 is thus a measure of the effectiveness of a compound in inhibiting a biological process. […] Based on this biology, several rare cancer tumor cell lines including neuroblastoma, rhabdomyosarcoma and Ewing sarcoma were analyzed for sensitivity to MBZ treatment in vitro. […] In all cases, including those described below, the viable cells were determined using the CellTiter Glo® kit and an IC50 curve was generated using the PRISM software.

Data set [5] deals with SW-13 adrenal cortical carcinoma cell line. The experiment in a line: MBZ cell viability IC50 (CellTiter Glo). Type of data set: cell-based. The following applies: Homo sapiens, SW13, 72 hours. The protocol: as §4
The subject of data set [6] is SK-UT-1B leiomyosarcoma cell line. The experiment in a line: MBZ cell viability IC50 (CellTiter Glo). In kind it is cell-based. The settings on record: Homo sapiens, Skut1B, 72 hours. The protocol:
as §4

In data set [7] the test system is SNU-16 gastric carcinoma cell line. The experiment in a line: MBZ cell viability IC50 (CellTiter Glo). Type of data set: cell-based. The following applies: Homo sapiens, 72 hours. The protocol:
as §4

Data set [8] relates to TC-71 Ewing's sarcoma cell line. Description: MBZ cell viability IC50 (CellTiter Glo). In kind it is cell-based. The settings on record: 72 hours. The protocol: as §4
Data set [9] concerns TC-32 Ewing's sarcoma cell line. The experiment in a line: MBZ cell viability IC50 (CellTiter Glo). Type of data set: cell-based. The settings on record: Homo sapiens, 72 hours. The protocol: as §4
In data set [10] the test system is CHLA-9 Ewing's sarcoma cell line. Description: MBZ cell viability IC50 (CellTiter Glo). The settings on record: 72 hours. Type of data set: cell-based. The protocol: as §4
Data set [11] has as its system Rh-30 rhabdomyosarcoma cell line. Description: MBZ cell viability IC50 (CellTiter Glo). Type of data set: cell-based. The settings on record: Rh30, 72 hours. The protocol: as §4
In data set [12] the test system is Rh-41 rhabdomyosarcoma cell line. Description: MBZ cell viability IC50 (CellTiter Glo). In kind it is cell-based. The following applies: Homo sapiens, Rh41, 72 hours. The protocol:
as §4

[13] abbreviates: both the 50 and 200 mg/kg dose levels.

The term IC50 denotes the midpoint of a concentration-inhibition curve. Low values mean greater potency in that assay, high ones weaker potency in that assay. For the molecule `COC(=O)Nc1nc2ccc(C(=O)c3ccccc3)cc2[nH]1` [MBZ, methyl N-(6-benzoyl-1H-benzimidazol-2-yl)carbamate], the “sensitivity to MBZ treatment (dose response)” value (in data set [1]; with U-CH2 chordoma cell line) was “largely resistant” in each case. The “tolerability of daily oral dosing” value in data set [2] is “well tolerated with no overt toxicities”. Moreover, the “range of synergistic CI values” in data set [3] is recorded as 0.223-0.837. Besides, the median survival is on record as 95.5 days with ACCX6 PDX tumors (50 mg/kg daily oral); 64.5 days in the data set with ACCX6 PDX tumors (200 mg/kg daily oral); 33 days in the data set with ACCX9 PDX tumors (50 mg/kg daily oral, not statistically significant); 38 days in the data set with ACCX9 PDX tumors (200 mg/kg daily oral). The “tumor growth compared to vehicle” value with ACCX6 PDX tumors (setting [13]) is recorded as “Inhibition of tumor growth”. For the same molecule, the tumor volume result in the data set with ACCX6 PDX tumors (setting [13]) and in the data set on ACCX9 PDX tumors (200 mg/kg) was “decrease in tumor volume” each time. For the same molecule, the anti-tumor activity result in the data set with ACCX9 PDX tumors (highest dose of 200 mg/kg) was “statistically significant anti-tumor activity”. Moreover, the tumor growth result in the data set on ACCX5M1 PDX tumors is “did not inhibit tumor growth”. In addition, the IC50 in [4] worked out at 0.1 µM; in data set [5], 0.26 µM; in data set [6], 0.1 µM; in data set [7], 0.42 µM; in data set [8], 0.47 µM; in data set [9], 0.41 µM. Moreover, the results for the IC50 in data set [10], in data set [11] and in data set [12] were 1.02 µM, 0.1 µM and 0.49 µM, respectively.
